Values quoted from earlier work as cited in patent publication US20050065127A1, “2-Alkylidene-19-nor-vitamin D derivatives for the treatment of osteosarcoma” (Pfizer Inc., priority 2003, published 2005).

Test system: serum calcium (bone calcium mobilization)
Conditions: chronic mode, 7 days, rats; 20S compound at 130 pmol/day

## C=C1[C@H](O)CC(=C/C=C2\CCC[C@]3(C)[C@@H]([C@H](C)CCCC(C)(C)O)CC[C@@H]23)C[C@H]1O [2-Methylene-19-Nor-1,25-(OH)2D3, 1α,25-dihydroxy-2-methylene-19-nor-vitamin D3]
  Bone calcium mobilization activity (serum calcium) relative to 1,25-(OH)2D3: 10-100 times
